Data: paper PMC3700072, “Synthesis, Anti-Inflammatory, and Ulcerogenicity Studies of Novel Substituted and Fused Pyrazolo[3,4-d]pyrimidin-4-ones” (Scientia Pharmaceutica, 2013)

Assays:
[1] = system: carrageenan-induced rat paw edema; test: carrageenan-induced rat paw edema test; type: in vivo; design: Mean increase in edema weight ± SEM: unit not given here; settings: rats, 10 mg/kg intraperitoneally, 4 h after carrageenan; for inhibition in vivo at 10 mg/kg / change in vivo at 10 mg/kg: Rattus norvegicus, ip; for inhibition in vivo at 10 mg/kg: 4 h, read-out: %Inhibition of Paw edema from control group (edema reduction); for change in vivo at 10 mg/kg / Mean increase in edema weight ± SEM: N = 6; for change in vivo at 10 mg/kg: read-out: Mean % increase in edema weight ± SEM; for % Activity relative to indomethacine: indomethacin = 100
Protocol: The in vivo anti-inflammatory effects of the newly synthesized pyrazolopyrimidine derivatives were assessed by utilizing the functional model of carrageenan-induced rat paw edema using indomethacin as the reference drug. Mean changes and the percent increase in paw edema weight of animals pretreated with the tested compounds after 4 h from the induction of inflammation were measured, together with the percent inhibition of induced rat paw edema by the tested compounds. The anti-inflammatory activity (relative potency) of the tested compounds relative to that of indomethacin was also calculated (Table 1) (Fig. 2).
The in vivo carrageenan-induced rat paw edema model of inflammation was used to evaluate the anti-inflammatory properties of the newly synthesized compounds according to the previously reported Winter et al. method.
Adult male albino rats weighing 100–120 g (obtained from the animal house of the department of Physiology, Faculty of Medicine, Alexandria University) were used throughout the work. Animals were randomly divided into groups of six rats each. They were kept in an animal house under standard conditions of light and temperature with free access to food and water ad libitum and allowed to be accustomed to their environment for two days before testing.
Indomethacin, used as a reference standard (Khahira for Pharmaceutical and Chemical Industry, Cairo, Egypt), and the test compounds were dissolved in DMSO and were injected intraperitoneally at a dose level of 10 mg/kg body weight. Control animals, on the other hand, were intraperitoneally injected with appropriate volume of DMSO only. After one hour of the above treatment, an inflammatory edema in the right hind paw of all animals was induced by subcutaneous injection of 0.05 ml of freshly prepared solution of 1% carrageenan (λ-Carrageenan Sigma–Aldrich Corp. St. Louis, MO, USA) in sterile normal saline (0.9%), into the subplantar tissue of the paw. An equal volume of saline was injected to the left hind paw and served as internal control for the degree of inflammation in the right hind paw.
Four hours after carrageenan injection, animals were decapitated and both the right and left hind paws were excised at a standard point and weighed. The difference in weight from edema between right and left paws was taken as a measure of the degree of inflammation for each animal. The mean increase in weight of the carrageenan-injected paw over the other paw in each group was measured and the percent increase of edema was calculated. The anti-inflammatory efficacy of the tested compounds was assessed by comparing the change in paw weight in the treated animals with that in control animals (treated with DMSO only) and expressed as a percent inhibition of the edema (percent protection against inflammation), calculated according to the following equation: % Inhibition of edema=(1-Wt/Wc)×100 where Wt is the mean increase in paw weight in rats treated with the test compounds and Wc is the mean increase in paw weight in the control group. The anti-inflammatory activity of the test compounds relative to that of indomethacin was also determined (Table 2).
In the anti-inflammatory study, data obtained were expressed as the mean ± standard error (SEM). Statistical significance was determined by comparing the values of the test compounds and the standard with those obtained from the control group of animals using One-way ANOVA with Dunnett’s post-test using the GraphPad Prism version 3.00 for Windows (GraphPad Software, San Diego California USA, www.graphpad.com). The difference in results was considered significant if P < 0.001.

gastric mucosa of rats = test: gastric ulcerogenic effect (Meshali's method, ulcer index by Robert's method); type: in vivo, rat; design: key to Ulcer index: ulcer index = %incidence/10 + avg no. of ulcers + avg severity (0–4)
Protocol: The ulcer index was calculated according to Robert’s method.
Adult male albino rats weighing between 100 and 120 g were used. Animals were divided into groups of five animals each. Rats were fasted 20 h before drug administration. Water was given ad libitum. The control group received the vehicle (1% gum acacia) orally. Other groups received indomethacin or test compounds orally in a dose of 10 mg/kg body weight suspended in 1% gum acacia. Rats were fasted for 2 h, allowed to feed for 2 h, then fasted for another 20 h. Rats were given another two doses on the second and third days. On the fourth day, rats were sacrificed by diethyl ether; the stomach of each rat was removed, opened along the greater curvature, and rinsed with cold 0.9% saline. The stomach was stretched, by pins, on a corkboard and inspected with a 3x magnifying lens for any evidence of mucosal damage. The ulcer index was calculated according to Robert’s method. The number of mucosal damage (red spots) was counted and their severity (ulcerogenic severity) was graded from 0 to 4 according to the following score assignment:
The following figures were calculated: • –– % Incidence/10 = [number of rats showing ulcer of any grade divided by total number of rats in the group × 100]/10. • –– Average number of ulcers: number of ulcers in the group/total number of rats in the group. • –– Average severity: Σ [each ulcer multiplied by its score of severity]/number of ulcers in the group. • Ulcer index = the sum of the 3 figures. • Results are tabulated in Table 2.

Row | SMILES | inhibition in vivo at 10 mg/kg [1] [%] | change in vivo at 10 mg/kg [1] [%] | Mean increase in edema weight ± SEM [1] | % Activity relative to indomethacine [1] [%] | melting point [°C] | % ulceration in the population of test animals (gastric mucosa of rats; oral 10 mg/kg) [%] | Average No. of ulcer (gastric mucosa of rats; oral 10 mg/kg on three days) | % Incidence/10 (gastric mucosa of rats; oral 10 mg/kg on three days, 5 animals per group) | % Ulcerogenicity relative to indomethacin (gastric mucosa of rats; oral 10 mg/kg on three days, indomethacin = 100) [%] | Average severity (gastric mucosa of rats; oral 10 mg/kg on three days, score 0 to 4) | Ulcer index (gastric mucosa of rats; oral 10 mg/kg on three days, sum of the 3 figures)
1 | Cc1nc2c(cnn2-c2ccccc2)c(=O)n1N [Compound 5, 5-Amino-6-methyl-1-phenyl-1,5-dihydro-4H-pyrazolo[3,4-d]pyrimidin-4-one] | 33.1 | 19.8 ± 1.6 | 1.05 ± 0.089 | 48.60 | – | – | – | – | – | – | –
2 | Cc1nc2c(cnn2-c2ccccc2)c(=O)n1N=Cc1ccccc1 [Compound 7a, 5-(Benzylideneamino)-6-methyl-1-phenyl-1,5-dihydro-4H-pyrazolo[3,4-d]pyrimidin-4-one] | 34.4 | 15.3 ± 0.515 | 1.03 ± 0.033 | 50.46 | 184 to 186 | – | – | – | – | – | –
3 | Cc1nc2c(cnn2-c2ccccc2)c(=O)n1N=Cc1ccc(Cl)cc1 [Compound 7b, 5-[(4-Chlorobenzylidene)amino]-6-methyl-1-phenyl-1,5-dihydro-4H-pyrazolo[3,4-d]-pyrimidin-4-one] | 36.3 | 15.2 ± 1.4 | 1.00 ± 0.063 | 53.28 | 195 to 196 | – | – | – | – | – | –
4 | Cc1nc2c(cnn2-c2ccccc2)c(=O)n1N1C(=O)CSC1c1ccccc1 (centres unmarked) [Compound 8a, 6-Methyl-5-(4-oxo-2-phenyl-1,3-thiazolidin-3-yl)-1-phenyl-1,5-dihydro-4H-pyrazolo[3,4-d]-pyrimidin-4-one] | 37.6 | 12.5 ± 0.376 | 0.98 ± 0.017 | 55.14 | 179 to 181 | – | – | – | – | – | –
5 | Cc1nc2c(cnn2-c2ccccc2)c(=O)n1N1C(=O)CSC1c1ccc(Cl)cc1 (centres unmarked) [Compound 8b, 5-[2-(4-Chlorophenyl)-4-oxo-1,3-thiazolidin-3-yl]-6-methyl-1-phenyl-1,5-dihydro-4H-pyrazolo[3,4-d]pyrimidin-4-one] | 40.8 | 13 ± 0.702 | 0.93 ± 0.042 | 59.81 | 191 to 195 | – | – | – | – | – | –
6 | Cc1nc2c(cnn2-c2ccccc2)c(=O)n1NC(=S)Nc1ccccc1 [Compound 9a, 1-(6-Methyl-4-oxo-1-phenyl-1,4-dihydro-5H-pyrazolo[3,4-d]pyrimidin-5-yl)-3-phenylthiourea] | 42.7 | 12.7 ± 0.748 | 0.90 ± 0.058 | 62.63 | 145 to 150 | – | – | – | – | – | –
7 | Cc1nc2c(cnn2-c2ccccc2)c(=O)n1NC(=S)Nc1ccc(Cl)cc1 [Compound 9b, 1-(4-Chlorophenyl)-3-(6-methyl-4-oxo-1-phenyl-1,4-dihydro-5H-pyrazolo[3,4-d]pyrimidin-5-yl)thiourea] | 47.8 | 15.7 ± 1.03 | 0.82 ± 0.048 | 70.10 | 157 to 160 | – | – | – | – | – | –
8 | Cc1nc2c(cnn2-c2ccccc2)c(=O)n1N=C1SCC(=O)N1c1ccccc1 [Compound 10a, 6-Methyl-5-[(4-oxo-3-phenyl-1,3-thiazolidin-2-ylidene)amino]-1-phenyl-1,5-dihydro-4H-pyrazolo[3,4-d]pyrimidin-4-one] | 52.2 | 9.5 ± 0.326 | 0.75 ± 0.022 | 76.64 | 264 to 267 | – | – | – | – | – | –
9 | Cc1nc2c(cnn2-c2ccccc2)c(=O)n1N1C(=O)CC(=O)N(c2ccccc2)C1=S [Compound 12a, 1-(6-Methyl-4-oxo-1-phenyl-1,4-dihydro-5H-pyrazolo[3,4-d]pyrimidin-5-yl)-3-phenyl-2-thioxodihydropyrimidine-4,6(1H,5H)-dione] | 35 | 13.6 ± 0.795 | 1.02 ± 0.060 | – | – | – | – | – | – | – | –
10 | Cc1nc2c(cnn2-c2ccccc2)c(=O)n1N1C(=O)CC(=O)N(c2ccc(Cl)cc2)C1=S [Compound 12b, 1-(4-Chlorophenyl)-3-(6-methyl-4-oxo-1-phenyl-1,4-dihydro-5H-pyrazolo[3,4-d]pyrimidin-5-yl)-2-thioxodihydropyrimidine-4,6(1H,5H)-dione] | 45.9 | 19.3 ± 0.905 | 0.85 ± 0.043 | 67.29 | 198 to 201 | – | – | – | – | – | –
11 | Nn1c(C=O)nc2c(cnn2-c2ccccc2)c1=O [Compound 13, 5-Amino-4-oxo-1-phenyl-4,5-dihydro-1H-pyrazolo[3,4-d]pyrimidine-6-carbaldehyde] | 39.5 | 15.1 ± 1.07 | 0.95 ± 0.043 | 57.95 | 145 to 146 | – | – | – | – | – | –
12 | CCOC(=O)c1cc2nc3c(cnn3-c3ccccc3)c(=O)n2nc1N [Compound 14, Ethyl 7-amino-4-oxo-1-phenyl-1,4-dihydropyrazolo[3′,4′:4,5]pyrimido[1,2-b]-pyridazine-8-carboxylate] | 44.6 | 11.1 ± 1.14 | 0.87 ± 0.076 | 65.43 | 155 to 156 | – | – | – | – | – | –
13 | CCOC(=O)c1cc2nc3c(cnn3-c3ccccc3)c(=O)n2[nH]c1=O [Compound 15, Ethyl 4,7-dioxo-1-phenyl-1,4,6,7-tetrahydropyrazolo[3′,4′:4,5]pyrimido[1,2-b]-pyridazine-8-carboxylate] | 41.4 | 16.4 ± 1.02 | 0.92 ± 0.060 | 60.75 | 172 to 173 | – | – | – | – | – | –
14 | O=c1c2cnn(-c3ccccc3)c2nc2ccc(-c3ccccc3)nn12 [Compound 16, 1,7-Diphenylpyrazolo[3′,4′:4,5]pyrimido[1,2-b]pyridazin-4(1H)-one] | 28.1 | 14.3 ± 0.98 | 1.13 ± 0.067 | 41.13 | 118 to 119 | – | – | – | – | – | –
15 | COc1ccc2c(c1)c(CC(=O)O)c(C)n2C(=O)c1ccc(Cl)cc1 [Indomethacin, reference compound] | 68.2 | 6.37 ± 0.366 | 0.50 ± 0.026 | 100.0 | – | 100 | 4.4 | 10 | 100.00 | 2.86 | 17.26
